# Entries after “also recorded” stand apart in the source; their conditions may differ. Where no end group is shown, it is not given here.
# Legend:
# ArLQR1 = assay: ArLQ/neuropeptide activation of ArLQR1, bioluminescence in CHO-ArLQR1 cells; format: cell-based, Asterias rubens; conditions: ArLQ 1 × 10^−4 to 1 × 10^−14 M, other neuropeptides 1 × 10^−4 to 1 × 10^−13 M
# From the text: (§1) To enable pharmacological characterisation of ArLQR1 and ArLQR2, cDNAs encoding these receptors were amplified by PCR, using A. rubens radial nerve cord total cDNA, specific primers (see supplementary Table 1 for a list of the primers) and Q5 polymerase (NEB; Cat. No. M0491S). First, the receptor cDNAs were ligated into the phagemid vector pBluescript II SK + (Agilent Technologies; Cat. No. 212205) using a blunt-end ligation method. The vector was cut with the restriction enzyme EcoRV (NEB; Cat. No. R0195S) and the ligation was performed using T4 DNA ligase (NEB; Cat. No. M0202S). Successful ligation was confirmed by PCR, restriction enzyme digestion and sequencing (TubeSeq service; Eurofins Genomics). The receptor cDNAs were then sub-cloned into the eukaryotic expression vector pcDNA 3.1( + ) (Invitrogen; Cat. No. V790-20). To accomplish this, forward primers included the partial Kozak consensus sequence (ACC) and a sequence corresponding to the first 21 bases of the ArLQR1 or ArLQR2 ORFs, including the start codon. Reverse primers consisted of a stop codon and a sequence reverse complementary to the ORF encoding the C-terminal region of ArLQR1 or ArLQR2 (see supplementary Table 1 for a list of the primers). PCR was performed using Q5 polymerase NEB and the cDNA products were ligated into the pcDNA 3.1(+) vector that had been cut previously with the restriction enzyme EcoRV by performing blunt-end ligation with T4 DNA ligase NEB. The direction of the insert was determined by restriction enzyme digestion and sequencing. The ArLQR1 and ArLQR2 sequences have been deposited in the GenBank database under accession numbers MG744509 and MG744510 respectively.
# (§2) To determine if ArLQ acts as a ligand for ArLQR1 and/or ArLQR2, the receptors were expressed in Chinese hamster ovary cells (CHO-K1) stably expressing the calcium-sensitive bioluminescent reporter GFP-aequorin fusion protein (G5A)[43]. CHO-K1 cells were maintained at 37 °C in T25 culture flasks (USA Scientific; Cat. No. CC7682-4325) containing 6 ml of DMEM/F12 Nutrient Mixture medium (Thermo Fisher Scientific; Cat. No. 11039047) supplemented with 10% fetal bovine serum (Thermo Fisher Scientific; Cat. No. 10082147), Antibiotic-Antimycotic 1 × (Thermo Fisher Scientific, Cat. No. 15240062) and 200 μg/ml of Geneticin G418 sulfate (Thermo Fisher Scientific, Cat. No. 10131035). Upon reaching a confluency of approximately 80%, cells were transfected with the plasmids containing ArLQR1 or ArLQR2 receptor cDNAs and a plasmid containing the promiscuous Gα-16 protein that can couple a wide range of GPCRs to the phospholipase C pathway. The transfection was achieved using 5 µg of each plasmid and 8 μl of the transfection reagent Lipofectamine 3000 following the manufacturer instructions (Thermo Fisher Scientific; Cat. No. L3000008). Two days post-transfection, the culture medium was removed and the cells detached by the addition of 2 ml of 1 × PBS buffer pH 7.4 (Thermo Fisher Scientific; Cat. No. 10010023) supplemented with UltraPure EDTA 0.5 M pH 8.0 (Thermo Fisher Scientific; Cat. No. 15575020) to a final concentration of 5 mM EDTA. […] Luminescence levels were recorded over a 35-second period using a FLUOstar Omega Plate Reader (BMG LABTECH; FLUOstar Omega Series multi-mode microplate reader). […]
# ArLQR2 = assay: ArLQ/neuropeptide activation of ArLQR2, bioluminescence in CHO-ArLQR2 cells; format: cell-based, Asterias rubens; conditions: ArLQ 1 × 10^−4 to 1 × 10^−14 M, other neuropeptides 1 × 10^−4 to 1 × 10^−13 M
# From the text: as §1, §2
# tube foot preparations = conditions: A. rubens; cited from earlier work
# From the text: Figure 6 ArLQ causes relaxation of in vitro preparations of tube feet from A. rubens. […] (B). […] Tube foot preparations were obtained by dissecting from starfish arms a small square-shaped piece of ambulacral body wall containing a single tube foot stem and its associated ampulla. Co ...
# [1] = system: cardiac stomach preparations; conditions: "all three of these preparations"; cited from earlier work
# Method: Informed by findings from analysis of the expression of ArLQP in A. rubens (see results), synthetic ArLQ (custom synthesized by PPR Ltd, Fareham, UK) was tested on tube foot and cardiac stomach preparations from A. rubens. […] Tube foot preparations were obtained by dissecting from starfish arms a small square-shaped piece of ambulacral body wall containing a single tube foot stem and its associated ampulla. Co ...
# heart ventricle = conditions: Achatina fulica; cited from earlier work
# From the text: (§3) Neuropeptides play a central role in the control of diverse physiological processes and behaviours in animals. Furthermore, neuropeptides are evolutionarily ancient mediators of neuronal signalling and a large number of different neuropeptide signalling pathways were already present in the common ancestor of protostomes and deuterostomes[1]–[3]. The discovery of neuropeptide signalling systems has been enabled by a variety of experimental strategies. The luqin-type neuropeptide system that is the focus of this study was first discovered using a molecular biological approach where the object ...
# [2] = system: neurons and muscles involved in feeding behaviour; conditions: Achatina fulica; cited from earlier work
# From the text: as §3
# GRL106 = conditions: orphan G-protein coupled receptor; cited from earlier work
# From the text: as §3
# auricle preparations = conditions: Lymnaea stagnalis; cited from earlier work
# From the text: as §3
# [3] = system: receptor for the luqin-type peptide WRPGRFamide; conditions: cited from earlier work
# From the text: as §3
substance,measurement,setting,value
"GGGVPHVFQSGGIF-NH2 [ArTK2, tachykinin-like peptide from A. rubens]",activation of ArLQR1 (in words),ArLQR1,none of them caused activation of the receptors
same,activation of ArLQR1 (in words),ArLQR1; listed as ArTKL,do not activate the receptors
same,activation of ArLQR2 (in words),ArLQR2,none of them caused activation of the receptors
same,activation of ArLQR2 (in words),ArLQR2; listed as ArTKL,do not activate the receptors
SGPYSFNSGLTF-NH2 [S2],activation of ArLQR1 (in words),ArLQR1,do not activate the receptors
same,activation of ArLQR1 (in words),ArLQR1; listed as SALMFamide-2,none of them caused activation of the receptors
same,activation of ArLQR2 (in words),ArLQR2,do not activate the receptors
same,activation of ArLQR2 (in words),ArLQR2; listed as SALMFamide-2,none of them caused activation of the receptors
same,relaxation of tube foot preparations (earlier studies),tube foot preparations,known tube foot relaxant; also recorded: causes relaxation of tube foot preparations; also recorded: relaxant of all three of these preparations
same,relaxant effect on cardiac stomach and other preparations (earlier studies),[1],relaxant of all three of these preparations
"SGQWRPQGRF-NH2 [ACEP-1, homolog of luqin (…amide) discovered in the snail Achatina fulica]",effect on beat of the heart ventricle,heart ventricle,potentiating the beat of the heart ventricle
same,effect on neurons and muscles involved in feeding behaviour,[2],excitatory effects on neurons and muscles involved in feeding behaviour
"TPHWRPQGRF-NH2 [LyCEP, luqin-type peptide (…amide) discovered in the pond snail Lymnaea stagnalis]",receptor identified for the peptide (GRL106),GRL106,identified as the receptor for this peptide
same,effect on beating frequency of auricle preparations,auricle preparations,increases the beating frequency of auricle preparations
WRPGRF-NH2 [luqin-type peptide of the annelid Platynereis dumerilii],receptor identified for the peptide (P. dumerilii),[3],has been identified in the annelid Platynereis dumerilii
"pQDRSKAMQAERTGQLRRLNPRF-NH2 [ArNPY, Neuropeptide Y-type peptide from A. rubens]",activation of ArLQR1 (in words),ArLQR1,do not activate the receptors; also recorded: none of them caused activation of the receptors
same,activation of ArLQR2 (in words),ArLQR2,do not activate the receptors; also recorded: none of them caused activation of the receptors

# From paper PMC5940834, “Discovery and functional characterisation of a luqin-type neuropeptide signalling system in a deuterostome” (Scientific Reports, 2018)
